The Kd is a measure of binding affinity in units of concentration. A lower Kd goes with tighter binding.

The text below walks through data of paper PMC3523284 (Cell metabolism, 2012).

SMILES strings stand for the structures.

Test [1] has as its target T1, Mss51 (Saccharomyces cerevisiae, UniProt P32335).
T1 sequence (P32335 1-436): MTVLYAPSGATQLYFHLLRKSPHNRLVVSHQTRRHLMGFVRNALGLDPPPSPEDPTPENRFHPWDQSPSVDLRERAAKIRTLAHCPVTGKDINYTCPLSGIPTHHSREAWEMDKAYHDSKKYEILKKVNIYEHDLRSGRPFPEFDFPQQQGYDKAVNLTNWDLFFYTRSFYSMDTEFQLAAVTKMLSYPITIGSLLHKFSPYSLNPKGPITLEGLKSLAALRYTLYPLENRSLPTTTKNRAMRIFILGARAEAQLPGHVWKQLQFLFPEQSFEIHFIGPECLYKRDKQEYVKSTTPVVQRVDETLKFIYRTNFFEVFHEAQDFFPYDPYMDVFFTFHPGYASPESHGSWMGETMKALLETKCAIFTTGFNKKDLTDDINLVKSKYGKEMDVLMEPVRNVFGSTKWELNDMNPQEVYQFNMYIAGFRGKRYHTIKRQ
Briefly: difference UV-visible spectroscopy titration. Type of test: binding.

The target of test [2] is Mss51 (Saccharomyces cerevisiae, UniProt P32335, C85S). Briefly: difference UV-visible spectroscopy titration. Type of test: binding.
Chain of Mss51 (Saccharomyces cerevisiae, UniProt P32335, C85S) (P32335 whole entry C85S): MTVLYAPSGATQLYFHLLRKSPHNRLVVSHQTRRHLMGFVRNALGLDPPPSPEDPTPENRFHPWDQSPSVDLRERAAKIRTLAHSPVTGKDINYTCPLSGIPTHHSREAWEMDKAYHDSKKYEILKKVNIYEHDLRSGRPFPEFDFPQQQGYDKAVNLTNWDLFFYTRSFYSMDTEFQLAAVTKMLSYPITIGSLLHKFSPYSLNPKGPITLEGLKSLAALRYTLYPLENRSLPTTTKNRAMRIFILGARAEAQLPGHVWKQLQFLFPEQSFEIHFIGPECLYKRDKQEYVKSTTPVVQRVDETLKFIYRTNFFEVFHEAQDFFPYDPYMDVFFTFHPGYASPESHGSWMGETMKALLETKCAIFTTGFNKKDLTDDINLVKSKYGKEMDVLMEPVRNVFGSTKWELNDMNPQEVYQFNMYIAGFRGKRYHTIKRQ

`C=CC1=C(C)C2=Cc3c(C=C)c(C)c4[n]3[Fe]([Cl])[n]3c(c(C)c(CCC(=O)O)c3=CC3=NC(=C4)C(C)=C3CCC(=O)O)=CC1=N2` [hemin]: the Kd at Mss51 [1] was about 445 nM; on Mss51 [2], 324 ± 74 nM.
